# Where “and” joins values, the source holds several entries; their conditions need not be identical. Equal entries are not always repeated. Entries after “also recorded” stand apart in the source; their conditions may differ. Where two headings read alike, the source gives them in different places.
# How the values were obtained:
# [1] = target: T1, NanoLuc-CRBN fusion (Homo sapiens, UniProt Q96SW2); experiment: NanoBRET CRBN in-cell target engagement assay; type: cell-based; conditions: Figure 3h, replicates
# T1 construct: host or cells: HEK 293T/17
# Protocol: The target engagement assay for BTK or CRBN was from Promega (BTK kit, Cat. No. N2500; CRBN kit, Cat. No. CS1810C136) and was performed according to the manufacture’s instruction with some modifications. […] After 2 h incubation, the 3X Nano-Glo® Substrate with NanoLuc® extracellular inhibitor were added to cells and developed for 3 min at room temperature. BRET signals were collected using a BioTek SYNERGY H1 microplate reader equipped with a 450/80-nm BP filter for donor emission and a 610-nm LP filter for acceptor emission. BRET Ratio was calculated with the equation: [(Acceptor sample/Donor sample)–(Acceptor no tracer control/Donor no tracer control)] × 1000. The IC50 of the compound against its BTK or CRBN tracer was calculated using GraphPad Prism software.
# [2] = test system: truncated Cereblon protein; experiment: CRBN binding assay (fluorescence quenching); conditions: for Fluorescence Intensity: Supplementary Figure 11, replicates
# Protocol: The Kd values of compounds to CRBN were measured based on fluorescence quenching after compounds binding to CRBN. […] All the compounds were dissolved in DMSO (10 mM) as stock solutions. The final drug concentration is 100 nM. […] Fluorescence intensity values for control wells (assay buffer only) were subtracted from each data point prior to analysis. The Kd was calculated using GraphPad Prism with the following equation curve fit. I=I0−If×Kd/P0+Kd+If
# [3] = target: BTK (Homo sapiens, UniProt Q06187); experiment: BTK degradation in MOLM-14 cells (western blot); type: cell-based; set-up: endogenous in cells; host or cells: MOLM-14
# [4] = test system: Rec-1; experiment: IC50 in MCL cell lines (Supplementary Table 2), Rec-1; conditions: for Cell Viability (%): Rec-1 cells, replicate wells
# [5] = test system: Maver-1; experiment: IC50 in MCL cell lines (Supplementary Table 2), Maver-1; conditions: Maver-1; triplicates
# [6] = test system: MOLM-14 cells; experiment: AlamarBlue cell viability assay, MOLM-14; conditions: for Cell viability, MOML-14: Supplementary Figure 7, replicates
# Protocol: The IC50 was calculated using GraphPad Prism software with a four-parameter dose-response curve fit.
# [7] = test system: BTK C481S mutant; conditions: cited from earlier work
# [8] = test system: Mino; experiment: IC50 in MCL cell lines (Supplementary Table 2), Mino; conditions: Mino; triplicates
# [9] = test system: Jeko-1; experiment: IC50 in MCL cell lines (Supplementary Table 2), Jeko-1; conditions: for Cell Viability (%): Jeko-1 cells, replicate wells
# [10] = Permeability by lipid-PAMPA method (Pharmaron); type: in vitro ADME; conditions: for recovery at 16 h, 10 μM: PAMPA
# Protocol: The permeability of compounds was measured using Lipid-PAMPA method by Pharmaron. Preparation of stock solutions: testosterone and methotrexate were used as control compounds in this assay. The stock solutions of positive controls were prepared in DMSO or acetonitrile at the concentration of 10 mM. Prepare a stock solution of compounds in DMSO at the concentration of 10 mM, and further dilute with PBS (pH 7.4). […]
# Assay procedures: prepare a 1.8% solution (w/v) of lecithin in dodecane, and sonicate the mixture to ensure a complete dissolution. Carefully pipette 5 μL of the lecithin/dodecane mixture into each acceptor plate well (top compartment), avoiding pipette tip contact with the membrane. Immediately after the application of the artificial membrane (within 10 min), add 300 μL of PBS (pH 7.4) solution to each well of the acceptor plate. Add 300 μL of drug-containing solutions to each well of the donor plate (bottom compartment) in triplicate. Slowly and carefully place the acceptor plate into the donor plate, making sure the underside of the membrane is in contact with the drug-containing solutions in all wells. Replace the plate lid and incubate at 25 °C, 60 rpm for 16 h. After incubation, aliquots of 50 μL from each well of acceptor and donor plate are transferred into a 96-well plate. Add 450 μL of methanol (containing IS: 100 nM Alprazolam, 200 nM Caffeine, 100 nM Tolbutamide) into each well. Cover with plate lid. Vortex at 750 rpm for 100 s. Samples were centrifuged at 3220 × g for 20 min. Determine the compound concentrations by LC/MS/MS. The effective permeability (Pe), in units of centimeter per second, can be calculated using the following equation: LogPe=LogC×−Ln1−drugacceptor/drugequilibrium
# T1 sequence (Q96SW2 whole entry, the tested form may be a part): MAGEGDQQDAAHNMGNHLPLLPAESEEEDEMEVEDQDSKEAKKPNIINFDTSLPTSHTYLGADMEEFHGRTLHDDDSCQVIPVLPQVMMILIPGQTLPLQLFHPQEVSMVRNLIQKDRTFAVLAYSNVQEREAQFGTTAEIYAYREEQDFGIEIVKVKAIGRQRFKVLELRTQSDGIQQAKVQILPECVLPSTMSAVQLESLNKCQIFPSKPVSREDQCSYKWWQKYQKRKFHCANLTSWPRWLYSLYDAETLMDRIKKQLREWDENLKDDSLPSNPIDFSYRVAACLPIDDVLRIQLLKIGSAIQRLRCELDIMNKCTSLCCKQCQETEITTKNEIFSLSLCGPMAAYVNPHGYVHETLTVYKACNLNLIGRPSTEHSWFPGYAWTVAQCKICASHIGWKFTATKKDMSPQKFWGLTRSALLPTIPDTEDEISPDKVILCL
# T1 sequence (Q16531 whole entry partner, the tested form may be a part): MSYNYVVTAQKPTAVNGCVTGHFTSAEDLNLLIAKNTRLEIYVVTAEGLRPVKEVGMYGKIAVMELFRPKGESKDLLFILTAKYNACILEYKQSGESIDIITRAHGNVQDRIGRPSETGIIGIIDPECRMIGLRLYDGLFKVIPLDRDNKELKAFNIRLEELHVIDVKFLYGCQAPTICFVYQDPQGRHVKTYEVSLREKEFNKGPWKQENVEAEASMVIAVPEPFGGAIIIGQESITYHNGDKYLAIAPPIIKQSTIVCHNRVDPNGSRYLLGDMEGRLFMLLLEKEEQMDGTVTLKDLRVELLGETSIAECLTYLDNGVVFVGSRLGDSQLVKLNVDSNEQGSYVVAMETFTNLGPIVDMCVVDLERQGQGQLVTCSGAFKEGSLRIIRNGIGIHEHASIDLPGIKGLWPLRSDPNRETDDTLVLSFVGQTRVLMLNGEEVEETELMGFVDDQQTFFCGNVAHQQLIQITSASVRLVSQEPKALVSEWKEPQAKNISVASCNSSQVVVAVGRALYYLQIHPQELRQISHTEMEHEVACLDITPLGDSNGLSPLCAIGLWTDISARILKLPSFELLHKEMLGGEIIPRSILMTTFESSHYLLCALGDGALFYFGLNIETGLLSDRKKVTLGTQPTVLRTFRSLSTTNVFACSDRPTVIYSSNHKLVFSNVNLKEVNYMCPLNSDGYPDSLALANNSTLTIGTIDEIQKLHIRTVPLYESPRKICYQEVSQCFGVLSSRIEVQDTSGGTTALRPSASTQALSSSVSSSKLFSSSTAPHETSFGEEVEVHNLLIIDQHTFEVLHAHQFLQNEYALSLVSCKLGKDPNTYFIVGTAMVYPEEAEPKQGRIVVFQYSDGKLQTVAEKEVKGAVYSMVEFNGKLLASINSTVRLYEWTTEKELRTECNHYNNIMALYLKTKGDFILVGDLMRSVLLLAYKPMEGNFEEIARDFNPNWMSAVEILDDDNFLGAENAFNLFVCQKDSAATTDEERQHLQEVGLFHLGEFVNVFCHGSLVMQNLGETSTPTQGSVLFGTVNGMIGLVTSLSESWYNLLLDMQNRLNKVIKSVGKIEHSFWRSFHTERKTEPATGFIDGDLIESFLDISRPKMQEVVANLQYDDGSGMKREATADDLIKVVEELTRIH
# BTK, sequence (Q06187 whole entry): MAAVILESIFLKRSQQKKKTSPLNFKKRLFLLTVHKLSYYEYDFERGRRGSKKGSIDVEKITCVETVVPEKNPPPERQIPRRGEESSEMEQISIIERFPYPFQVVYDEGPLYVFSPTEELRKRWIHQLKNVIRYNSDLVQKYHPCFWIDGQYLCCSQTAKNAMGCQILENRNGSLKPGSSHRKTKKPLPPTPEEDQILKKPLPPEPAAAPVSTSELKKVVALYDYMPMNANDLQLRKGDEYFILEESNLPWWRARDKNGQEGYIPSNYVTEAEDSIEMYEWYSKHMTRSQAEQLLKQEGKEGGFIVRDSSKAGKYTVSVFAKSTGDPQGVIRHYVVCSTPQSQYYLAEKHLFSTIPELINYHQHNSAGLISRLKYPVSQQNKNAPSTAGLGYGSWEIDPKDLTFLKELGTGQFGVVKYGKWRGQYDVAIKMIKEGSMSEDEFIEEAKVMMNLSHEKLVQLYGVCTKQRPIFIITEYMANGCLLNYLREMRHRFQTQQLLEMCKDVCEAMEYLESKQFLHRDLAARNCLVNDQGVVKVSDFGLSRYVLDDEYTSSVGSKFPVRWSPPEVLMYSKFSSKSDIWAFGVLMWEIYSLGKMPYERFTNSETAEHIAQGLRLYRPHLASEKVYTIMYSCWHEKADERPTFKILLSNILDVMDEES
smiles,measurement,setting,value
"Nc1cccc2c1C(=O)N(C1CCC(=O)NC1=O)C2=O (stereo not drawn) [Pomalidomide, pomalidomide, reference compound]",NanoBRET(%),[1]; drug concentration 1.00E-05 M,8.749% and 2.427%
same,NanoBRET(%),[1]; drug concentration 1.60E-08 M,79.9835% and 62.224% and 75.9099%
same,NanoBRET(%),[1]; drug concentration 2.00E-06 M,10.9943% and 16.7844%
same,NanoBRET(%),[1]; drug concentration 3.20E-09 M,86.2914% and 88.5513% and 84.0314%
same,NanoBRET(%),[1]; drug concentration 4.00E-07 M,54.7588% and 35.141% and 58.1892%
same,NanoBRET(%),[1]; drug concentration 8.00E-08 M,88.9359% and 73.8405% and 79.0012%
same,Fluorescence Intensity,[2]; CRBN 0 μM,9876.2 and 9503.2 and 9587.2
same,Fluorescence Intensity,[2]; CRBN 0.734375 μM,7603.2 and 7913.2 and 7829.2
same,Fluorescence Intensity,[2]; CRBN 1.46875 μM,6654.2 and 6940.2 and 6542.2
same,Fluorescence Intensity,[2]; CRBN 2.9375 μM,5927.2 and 5996.2 and 5981.2
same,Fluorescence Intensity,[2]; CRBN 5.875 μM,5201.2 and 5168.2 and 5152.2
same,Fluorescence Intensity,[2]; CRBN 11.75 μM,4654.2 and 4688.2 and 4502.2
same,Fluorescence Intensity,[2]; CRBN 23.5 μM,4529.2 and 4338.2 and 4613.2
same,Kd,"[2]; truncated Cereblon protein, fluorescence quenching, triplicates",1400 nM
same,Quantification anti-BTK / anti-β-actin (BTK level vs DMSO),"[3]; Figure 2d, DMSO = 100 (mean)",81.7787
same,BTK degradation (in words),"[3]; MOLM-14 cells, 200 nM, 24 h (Fig. 2d)","Neither RC-Ctrl, nor pomalidomide, nor a combination of both caused BTK degradation; also recorded: neither the RC-1 warhead, nor pomalidomide, nor a combination of both caused BTK degradation"
"C=CC(=O)N1CCC[C@@H](n2nc(-c3ccc(Oc4ccccc4)cc3)c3c(N)ncnc32)C1 [IRC-Ctrl, ibrutinib, reference compound]",IC50,"[4]; Rec-1, triplicates",6200 nM
same,Cell Viability (%),[4]; 1.50E-05 M,8.535% and 9.796% and 10.5906%
same,Cell Viability (%),[4]; 1.88E-06 M,74.3495% and 75.6404% and 76.9194%
same,Cell Viability (%),[4]; 3.00E-05 M,2.364% and 2.247% and 2.265%
same,Cell Viability (%),[4]; 3.75E-06 M,66.2063%
same,Cell Viability (%),[4]; 4.69E-07 M,84.8624% and 81.0762% and 81.5842%
same,Cell Viability (%),[4]; 7.50E-06 M,44.5947% and 45.7572% and 45.7871%
same,Cell Viability (%),[4]; 9.38E-07 M,81.9548% and 81.1808% and 88.2512%
same,IC50,[5],5400 nM
same,IC50,"[6]; Homo sapiens, MOLM-14, 72 h, read-out: Cell viability IC50",330 nM
same,"Cell viability, MOML-14",[6]; drug concentration 1.00E-05 M,2.829 and 3.671 and 10.6075 and 4.63 and 7.964
same,"Cell viability, MOML-14",[6]; drug concentration 1.60E-08 M,78.5123 and 71.6258 and 103.431 and 81.3409
same,"Cell viability, MOML-14",[6]; drug concentration 2.00E-06 M,11.3315 and 13.8066 and 22.1242 and 13.453 and 22.4778
same,"Cell viability, MOML-14",[6]; drug concentration 3.20E-09 M,74.4713 and 69.3023 and 89.0692 and 86.5941 and 80.2465
same,"Cell viability, MOML-14",[6]; drug concentration 4.00E-07 M,35.4256 and 44.6356 and 55.26 and 47.599 and 43.2718
same,"Cell viability, MOML-14",[6]; drug concentration 6.40E-10 M,87.7559 and 71.8279 and 83.9002
same,"Cell viability, MOML-14",[6]; drug concentration 8.00E-08 M,71.3059 and 57.3983 and 86.3921 and 79.7919 and 76.879
same,IC50,[7],4.6 nM
same,IC50,[8],3800 nM
same,IC50,"[9]; Jeko-1, triplicates",300 nM
same,Cell Viability (%),[9]; 1.50E-05 M,2.151% and 2.02% and 1.9313%
same,Cell Viability (%),[9]; 1.88E-06 M,2.568% and 2.43% and 2.412%
same,Cell Viability (%),[9]; 3.00E-05 M,2.333% and 2.338% and 2.111%
same,Cell Viability (%),[9]; 3.75E-06 M,2.338% and 2.397% and 2.358%
same,Cell Viability (%),[9]; 4.69E-07 M,5.039% and 20.4969% and 18.3979%
same,Cell Viability (%),[9]; 7.50E-06 M,2.252% and 2.304% and 1.966%
same,Cell Viability (%),[9]; 9.38E-07 M,2.5504% and 5.547% and 2.871%
"C[C@]12CC[C@H]3[C@@H](CCC4=CC(=O)CC[C@@]43C)[C@@H]1CC[C@@H]2O [Testosterone, testosterone, reference compound]","recovery at 16 h, 10 μM","[10]; Mean, read-out: Recovery%",91.1%
same,"recovery at 16 h, 10 μM","[10]; single replicates, read-out: Recovery%",88.7%
same,Recovery%,[10]; single replicates,88.88% and 95.84%
same,-Log Pe,"[10]; single replicates, 10 μM, PBS pH 7.4, 25 °C, 16 h, Pe in centimeter per second",4.51 and 4.29 and 4.30
"CN(Cc1cnc2nc(N)nc(N)c2n1)c1ccc(C(=O)N[C@@H](CCC(=O)O)C(=O)O)cc1 [Methotrexate, methotrexate, reference compound]","recovery at 16 h, 10 μM",[10]; Recovery%,105%

# Source: PMC7450057, “Enhancing intracellular accumulation and target engagement of PROTACs with reversible covalent chemistry” (Nature Communications, 2020)
